Measured values from patent US11491157B2, “Cycloalkyl substituted pyrazolopyrimidines having activity against RSV” (priority 2018, dated 2022).
Where a name gives a salt, the structure may show the parent alone.

Columns and labels:
rgRSV224 virus = assay: Antiviral activity: rgRSV224 (GFP) replication in HeLa cells; conditions: human respiratory syncytial virus, 72 h, read-out: RSV HELA EC50
Procedure: (§1) Black 384-well clear-bottom microtiter plates (Corning, Amsterdam, The Netherlands) were filled via acoustic drop ejection using the echo liquid handler (Labcyte, Sunnyvale, Calif.). 200 nL of compound stock solutions (100% DMSO) were transferred to the assay plates. 9 serial 4-fold dilutions of compound were made, creating per quadrant the same compound concentration. The assay was initiated by adding 10 μL of culture medium to each well (RPMI medium without phenol red, 10% FBS-heat inactivated, 0.04% gentamycin (50 mg/mL). All addition steps are done by using a multidrop dispenser (Thermo Scientific, Erembodegem, Belgium). Next, rgRSV224 virus (MOI=1) diluted in culture medium was added to the plates. rgRSV224 virus is an engineered virus that includes an additional GFP gene (Hallak L K, Spillmann D, Collins P L, Peeples M E. Glycosaminoglycan sulfation requirements for respiratory syncytial virus infection; Journal of virology (2000), 74(22), 10508-13) and was in-licensed from the NIH (Bethesda, Md., USA). Finally, 20 μL of a HeLa cell suspension (3,000 cells/well) were plated. Medium, virus- and mock-infected controls were included in each test. The wells contain 0.05% DMSO per volume. Cells were incubated at 37° C. in a 5% CO2 atmosphere. Three days post-virus exposure, viral replication was quantified by measuring GFP expression in the cells by an in house developed MSM laser microscope (Tibotec, Beerse, Belgium). The EC50 was defined as the 50% inhibitory concentration for GFP expression. In parallel, compounds were incubated for three days in a set of white 384-well microtiter plates (Corning) and the cytotoxicity of compounds in HeLa cells was determined by measuring the ATP content of the cells using the ATPlite kit (Perkin Elmer, Zaventem, Belgium) according to the manufacturer's instructions. The CC50 was defined as the 50% concentration for cytotoxicity.

in vitro = conditions: human
Procedure: as §1

| Structure (SMILES) | melting point [°C] | EC50 (rgRSV224 virus) [nM] | CC50 at 3 days (in vitro) [nM] |
| --- | --- | --- | --- |
| C[C@@H]1c2cc(F)sc2CCN1C(=O)c1cc(C2CC2)n2nc(-c3ccc([C@H]4C[C@@H]4C(N)=O)cc3F)cc2n1 (relative stereo) [Compound 11, (1S,2S)-2-(4-{7-Cyclopropyl-5-[(4*R)-2-fluoro-4-methyl-4,5,6,7-tetrahydro-thieno[3,2-c]pyridine-5-carbonyl]pyrazolo[1,5-a]pyrimidin-2-yl}-3-fluorophenyl)cyclopropane-1-carboxamide] | 300.14 | 44 |  |
| C[C@@H]1c2ccccc2CCN1C(=O)c1cc(-c2ccccc2)n2nc(-c3ccc([C@@H]4C[C@H]4C(=O)NS(C)(=O)=O)cc3F)cc2n1 (single isomer, unassigned) (as salt: salt) [Compound 32, (1*R,2*R)-2-(3-Fluoro-4-{5-[(1R)-1-methyl-1,2,3,4-tetrahydroisoquinoline-2-carbonyl]-7-phenylpyrazolo[1,5-a]pyrimidin-2-yl}phenyl)-N-methanesulfonyl-cyclopropane-1-carboxamide; propan-2-amine salt] | 186.79 |  |  |
| C[C@@H]1c2ccsc2CCN1C(=O)c1cc(C2CC2)n2nc(-c3ccc([C@H]4C[C@@H]4C(N)=O)cc3F)cc2n1 (single isomer, unassigned) [Compound 10, (1S,2S)-2-(4-{7-Cyclopropyl-5-[(4*R)-4-methyl-4,5,6,7-tetrahydro-thieno[3,2-c]pyridine-5-carbonyl]pyrazolo[1,5-a]pyrimidin-2-yl}-3-fluorophenyl)cyclopropane-1-carboxamide] | 302.9 | 14 | > 25000 |
| C[C@@H]1c2ccsc2CCN1C(=O)c1cc(C2CC2)n2nc(-c3ccc([C@H]4C[C@@H]4C(=O)NS(C)(=O)=O)cc3F)cc2n1 (single isomer, unassigned) [Compound 28, (1S,2S)-2-(4-{7-Cyclopropyl-5-[(4*R)-4-methyl-4,5,6,7-tetrahydro-thieno[3,2-c]pyridine-5-carbonyl]pyrazolo[1,5-a]pyrimidin-2-yl}-3-fluorophenyl)-N-methanesulfonyl-cyclopropane-1-carboxamide] | 286.12 | 37 | 53400 |
| C[C@@H]1c2ccccc2CCN1C(=O)c1cc(C2CC2)n2nc(-c3ccc([C@H]4C[C@@H]4c4nnn[nH]4)cc3F)cc2n1 [Compound 4, (1R)-2-(7-Cyclopropyl-2-{2-fluoro-4-[(1S,2S)-2-(1H-1,2,3,4-tetrazol-5-yl)cyclopropyl]phenyl}pyrazolo[1,5-a]pyrimidine-5-carbonyl)-1-methyl-1,2,3,4-tetrahydroisoquinoline] | 254.07 | 120 | 44000 |
| C[C@@H]1c2ccccc2CCN1C(=O)c1cc(C2CC2)n2nc(-c3ccc([C@H]4C[C@@H]4C(N)=O)cc3F)cc2n1 [Compound 7, (1S,2S)-2-(4-{7-Cyclopropyl-5-[(1R)-1-methyl-1,2,3,4-tetrahydroisoquinoline-2-carbonyl]pyrazolo[1,5-a]pyrimidin-2-yl}-3-fluorophenyl)cyclopropane-1-carboxamide] | 280.69 | 30 | > 100000 |
| CNC(=O)[C@H]1C[C@@H]1c1ccc(-c2cc3nc(C(=O)N4CCc5ccccc5[C@H]4C)cc(C4CC4)n3n2)c(F)c1 [Compound 12, (1S,2S)-2-(4-{7-Cyclopropyl-5-[(1R)-1-methyl-1,2,3,4-tetrahydroisoquinoline-2-carbonyl]pyrazolo[1,5-a]pyrimidin-2-yl}-3-fluorophenyl)-N-methylcyclopropane-1-carboxamide] | 258.18 | 24 | > 100000 |
| CCCNC(=O)[C@H]1C[C@@H]1c1ccc(-c2cc3nc(C(=O)N4CCc5ccccc5[C@H]4C)cc(C4CC4)n3n2)c(F)c1 [Compound 15, (1S,2S)-2-(4-{7-Cyclopropyl-5-[(1R)-1-methyl-1,2,3,4-tetrahydroisoquinoline-2-carbonyl]pyrazolo[1,5-a]pyrimidin-2-yl}-3-fluorophenyl)-N-propylcyclopropane-1-carboxamide] | 238.1 | 408 | > 100000 |
| C=CCNC(=O)[C@H]1C[C@@H]1c1ccc(-c2cc3nc(C(=O)N4CCc5ccccc5[C@H]4C)cc(C4CC4)n3n2)c(F)c1 [Compound 16, (1S,2S)-2-(4-{7-Cyclopropyl-5-[(1R)-1-methyl-1,2,3,4-tetrahydroisoquinoline-2-carbonyl]pyrazolo[1,5-a]pyrimidin-2-yl}-3-fluorophenyl)-N-(prop-2-en-1-yl)cyclopropane-1-carboxamide] | 240.35 | 263 | > 100000 |
| C[C@@H]1c2ccccc2CCN1C(=O)c1cc(C2CC2)n2nc(-c3ccc([C@H]4C[C@@H]4C(=O)NCCC#N)cc3F)cc2n1 [Compound 18, (1S,2S)—N-(2-Cyanoethyl)-2-(4-{7-cyclopropyl-5-[(1R)-1-methyl-1,2,3,4-tetrahydro-isoquinoline-2-carbonyl]pyrazolo[1,5-a]pyrimidin-2-yl}-3-fluorophenyl)cyclopropane-1-carboxamide] | 212.72 | 76 | > 100000 |
| C[C@@H]1c2ccccc2CCN1C(=O)c1cc(C2CC2)n2nc(-c3ccc([C@H]4C[C@@H]4C(=O)NC4COC4)cc3F)cc2n1 [Compound 19, (1S,2S)-2-(4-{7-Cyclopropyl-5-[(1R)-1-methyl-1,2,3,4-tetrahydroisoquinoline-2-carbonyl]-pyrazolo[1,5-a]pyrimidin-2-yl}-3-fluorophenyl)-N-(oxetan-3-yl)cyclopropane-1-carboxamide] | 248.97 | 95 | > 100000 |
| C[C@@H]1c2ccccc2CCN1C(=O)c1cc(C2CC2)n2nc(-c3ccc([C@H]4C[C@@H]4C(=O)NS(C)(=O)=O)cc3F)cc2n1 [Compound 24, (1S,2S)-2-(4-{7-Cyclopropyl-5-[(1R)-1-methyl-1,2,3,4-tetrahydroisoquinoline-2-carbonyl]pyrazolo[1,5-a]pyrimidin-2-yl}-3-fluorophenyl)-N-methanesulfonyl-cyclopropane-1-carboxamide] | 166.75 | 20 | 44900 |
| CCS(=O)(=O)NC(=O)[C@H]1C[C@@H]1c1ccc(-c2cc3nc(C(=O)N4CCc5ccccc5[C@H]4C)cc(C4CC4)n3n2)c(F)c1 [Compound 25, (1S,2S)-2-(4-{7-Cyclopropyl-5-[(1R)-1-methyl-1,2,3,4-tetrahydroisoquinoline-2-carbonyl]pyrazolo[1,5-a]pyrimidin-2-yl}-3-fluorophenyl)-N-(ethanesulfonyl)-cyclopropane-1-carboxamide] | 171.93 | 34 | 51900 |
| CC(C)CS(=O)(=O)NC(=O)[C@H]1C[C@@H]1c1ccc(-c2cc3nc(C(=O)N4CCc5ccccc5[C@H]4C)cc(C4CC4)n3n2)c(F)c1 [Compound 26, (1S,2S)-2-(4-{7-Cyclopropyl-5-[(1R)-1-methyl-1,2,3,4-tetrahydroisoquinoline-2-carbonyl]pyrazolo[1,5-a]pyrimidin-2-yl}-3-fluorophenyl)-N-(2-methylpropanesulfonyl)-cyclopropane-1-carboxamide] | 160.53 | 138 | 52100 |
| C[C@@H]1c2ccccc2CCN1C(=O)c1cc(C2CC2)n2nc(-c3ccc([C@H]4C[C@@H]4O)cc3F)cc2n1 [Compound 38, (1S,2R)-2-(4-{7-Cyclopropyl-5-[(1R)-1-methyl-1,2,3,4-tetrahydroisoquinoline-2-carbonyl]pyrazolo[1,5-a]pyrimidin-2-yl}-3-fluorophenyl)cyclopropan-1-ol] |  | 159 | 50400 |
| C[C@@H]1c2ccccc2CCN1C(=O)c1cc(C2CC2)n2nc(-c3ccc([C@H]4C[C@H](CO)C4)cc3F)cc2n1 [Compound 41, [trans-3-(4-{7-Cyclopropyl-5-[(1R)-1-methyl-1,2,3,4-tetrahydroisoquinoline-2-carbonyl]pyrazolo[1,5-a]pyrimidin-2-yl}-3-fluorophenyl)cyclobutyl]methanol] |  | 152 | 49800 |
| C[C@@H]1c2ccccc2CCN1C(=O)c1cc(C2CC2)n2nc(-c3ccc([C@H]4C[C@H](COC(N)=O)C4)cc3F)cc2n1 [Compound 43, [trans-3-(4-{7-Cyclopropyl-5-[(1R)-1-methyl-1,2,3,4-tetrahydroisoquinoline-2-carbonyl]pyrazolo[1,5-a]pyrimidin-2-yl}-3-fluorophenyl)cyclobutyl]methyl carbamate] |  | 307 | > 100000 |
| C[C@@H]1c2ccccc2CCN1C(=O)c1cc(C2CC2)n2nc(-c3ccc([C@H]4C[C@H](CC(N)=O)C4)cc3F)cc2n1 [Compound 45, 2-[trans-3-(4-{7-Cyclopropyl-5-[(1R)-1-methyl-1,2,3,4-tetrahydroisoquinoline-2-carbonyl]pyrazolo[1,5-a]pyrimidin-2-yl}-3-fluorophenyl)cyclobutyl]acetamide] |  | 146 | 29500 |
| C[C@@H]1c2ccccc2CCN1C(=O)c1cc(C2CC2)n2nc(-c3ccc([C@H]4C[C@@H](CC(N)=O)C4)cc3F)cc2n1 [Compound 46, 2-[cis-3-(4-{7-Cyclopropyl-5-[(1R)-1-methyl-1,2,3,4-tetrahydroisoquinoline-2-carbonyl]pyrazolo[1,5-a]pyrimidin-2-yl}-3-fluorophenyl)cyclobutyl]acetamide] |  | 145 | 30400 |
| CNC(=O)C[C@H]1C[C@H](c2ccc(-c3cc4nc(C(=O)N5CCc6ccccc6[C@H]5C)cc(C5CC5)n4n3)c(F)c2)C1 [Compound 47, N-methyl-2-[trans-3-(4-{7-cyclopropyl-5-[(1R)-1-methyl-1,2,3,4-tetrahydroisoquinoline-2-carbonyl]pyrazolo[1,5-a]pyrimidin-2-yl}-3-fluorophenyl)cyclobutyl]acetamide] |  | 148 | 25800 |
